The text below walks through data of ChEMBL document CHEMBL4382233, “Discovery of novel arylethenesulfonyl fluorides as potential candidates against methicillin-resistant of Staphylococcus aureus (MRSA) for overcoming multidrug resistance of bacterial infections” (2019).

Structures are written as SMILES. Converted amounts (≈) assume the structure as drawn. The source made the active and inactive calls. The calls are words filed in the database; no cut-off is given here.

One may read the MIC99 as the lowest concentration that inhibits either 99% of growth or 99% of the strains tested, depending on the study. Read a high MIC99 as weaker potency.

Experiment [1] concerns Staphylococcus aureus. The experiment can be described thus: Antibacterial activity against methicillin-resistant Staphylococcus aureus after overnight incubation by micro broth dilution analysis. The class given is functional. For orientation: In broth dilution the organism is exposed to a series of concentrations in liquid medium.
The subject of experiment [2] is Staphylococcus epidermidis. The experiment can be described thus: Antibacterial activity against methicillin-resistant Staphylococcus epidermidis after overnight incubation by micro broth dilution analysis. The class given is functional.
The test system of experiment [3] is Staphylococcus haemolyticus. The experiment can be described thus: Antibacterial activity against methicillin-resistant Staphylococcus haemolyticus after overnight incubation by micro broth dilution analysis. Format: functional.
Experiment [4] deals with Staphylococcus aureus. The experiment can be described thus: Antibacterial activity against methicillin-resistant Staphylococcus aureus assessed as zone of inhibition at 50 ug/mL after 24 hrs by agar disc diffusion method. Format: functional. The following applies: read-out: IZ. On the technique in general: In agar diffusion tests the substance spreads into inoculated agar from a disc or well.

The test system of experiment [5] is Staphylococcus aureus. The experiment can be described thus: Antibacterial activity against methicillin-resistant Staphylococcus aureus assessed as zone of inhibition at 200 ng/mL after 24 hrs by agar disc diffusion method. Format: functional. The following applies: read-out: IZ.
Experiment [6] deals with Staphylococcus aureus. The experiment can be described thus: Antibacterial activity against methicillin-resistant Staphylococcus aureus assessed as zone of inhibition at 400 ng/mL after 24 hrs by agar disc diffusion method. Format: functional. The following applies: read-out: IZ.
For experiment [7], the system named is Staphylococcus aureus. The experiment can be described thus: Antibacterial activity against methicillin-resistant Staphylococcus aureus assessed as zone of inhibition at 800 ng/mL after 24 hrs by agar disc diffusion method. The class given is functional. The following applies: read-out: IZ.
In experiment [8] the test system is Staphylococcus epidermidis. The experiment can be described thus: Antibacterial activity against methicillin-resistant Staphylococcus epidermidis assessed as zone of inhibition at 20 ug/mL after 24 hrs by agar disc diffusion method. The following applies: read-out: IZ. The class given is functional.
Experiment [9] has as its system Staphylococcus epidermidis. The experiment can be described thus: Antibacterial activity against methicillin-resistant Staphylococcus epidermidis assessed as zone of inhibition at 200 ng/mL after 24 hrs by agar disc diffusion method. Format: functional. The following applies: read-out: IZ.
The subject of experiment [10] is Staphylococcus epidermidis. The experiment can be described thus: Antibacterial activity against methicillin-resistant Staphylococcus epidermidis assessed as zone of inhibition at 400 ng/mL after 24 hrs by agar disc diffusion method. The following applies: read-out: IZ. Format: functional.
For experiment [11], the system named is Staphylococcus epidermidis. The experiment can be described thus: Antibacterial activity against methicillin-resistant Staphylococcus epidermidis assessed as zone of inhibition at 800 ng/mL after 24 hrs by agar disc diffusion method. The class given is functional. Particulars: read-out: IZ.
For experiment [12], the system named is Staphylococcus haemolyticus. The experiment can be described thus: Antibacterial activity against methicillin-resistant Staphylococcus haemolyticus assessed as zone of inhibition at 50 ug/mL after 24 hrs by agar disc diffusion method. Format: functional. The following applies: read-out: IZ.
Experiment [13] deals with Staphylococcus haemolyticus. The experiment can be described thus: Antibacterial activity against methicillin-resistant Staphylococcus haemolyticus assessed as zone of inhibition at 200 ng/mL after 24 hrs by agar disc diffusion method. Format: functional. Particulars: read-out: IZ.
Experiment [14] concerns Staphylococcus haemolyticus. The experiment can be described thus: Antibacterial activity against methicillin-resistant Staphylococcus haemolyticus assessed as zone of inhibition at 400 ng/mL after 24 hrs by agar disc diffusion method. Format: functional. Particulars: read-out: IZ.
In experiment [15] the test system is Staphylococcus haemolyticus. The experiment can be described thus: Antibacterial activity against methicillin-resistant Staphylococcus haemolyticus assessed as zone of inhibition at 800 ng/mL after 24 hrs by agar disc diffusion method. Format: functional. Particulars: read-out: IZ.
For experiment [16], the system named is Staphylococcus aureus. The experiment can be described thus: Induction of cellular content release in methicillin-resistant Staphylococcus aureus assessed as DNA content by measuring optical density at 260 nm at MIC after 240 mins by UV-visible spectrophotometric analysis. Format: functional.
Experiment [17] deals with Staphylococcus aureus. The experiment can be described thus: Antibiofilm activity against methicillin-resistant Staphylococcus aureus at MIC after 24 hrs by crystal violet staining-based UV-visible spectrophotometric analysis. The class given is functional, organism-based.
For experiment [18], the system named is Staphylococcus aureus. The experiment can be described thus: Antibiofilm activity against methicillin-resistant Staphylococcus aureus assessed as optical density at 492 nm at 1 to 2 times MIC after 24 hrs by crystal violet staining-based UV-visible spectrophotometric analysis. The class given is functional.
Experiment [19] relates to Staphylococcus aureus. The experiment can be described thus: Antibiofilm activity against methicillin-resistant Staphylococcus aureus planktonic biofilm assessed as optical density at 492 nm at MIC after 24 hrs by crystal violet staining-based UV-visible spectrophotometric analysis. The class given is functional.
In experiment [20] the test system is Staphylococcus aureus. The experiment can be described thus: Induction of pore formation in methicillin-resistant Staphylococcus aureus cell membrane assessed as increase in ferricyanide mediated cellular leakage after 2 hrs by DCPIP dye-based cyclic voltammetric analysis. Format: functional, organism-based.
Experiment [21] deals with Staphylococcus aureus. The experiment can be described thus: Induction of pore formation in methicillin-resistant Staphylococcus aureus cell membrane assessed as increase in ferricyanide mediated potassium efflux after 2 hrs by DCPIP dye-based cyclic voltammetric analysis. The class given is functional, organism-based.
The test system of experiment [22] is Staphylococcus aureus. The experiment can be described thus: Induction of pore formation in methicillin-resistant Staphylococcus aureus cell membrane assessed as increase in ferricyanide mediated DNA damage after 2 hrs by DCPIP dye-based cyclic voltammetric analysis. Format: functional, organism-based.
Experiment [23] concerns Staphylococcus aureus. The experiment can be described thus: Antibacterial activity against methicillin-resistant Staphylococcus aureus assessed as zone of inhibition at 30 ug/mL after 24 hrs by agar disc diffusion method. Format: functional. The following applies: read-out: IZ.
The test system of experiment [24] is Staphylococcus epidermidis. The experiment can be described thus: Antibacterial activity against methicillin-resistant Staphylococcus epidermidis assessed as zone of inhibition at 30 ug/mL after 24 hrs by agar disc diffusion method. Format: functional. Particulars: read-out: IZ.
Experiment [25] deals with Staphylococcus haemolyticus. The experiment can be described thus: Antibacterial activity against methicillin-resistant Staphylococcus haemolyticus assessed as zone of inhibition at 30 ug/mL after 24 hrs by agar disc diffusion method. The following applies: read-out: IZ. The class given is functional.
The test system of experiment [26] is Staphylococcus aureus. The experiment can be described thus: Antibiofilm activity against methicillin-resistant Staphylococcus aureus at 2 times MIC after 24 hrs by crystal violet staining-based UV-visible spectrophotometric analysis. The class given is functional, organism-based.
The subject of experiment [27] is Staphylococcus aureus. The experiment can be described thus: Antibiofilm activity against methicillin-resistant Staphylococcus aureus assessed as reduction in adherence of planktonic bacteria at MIC up to 24 hrs by SEM analysis. The class given is functional, organism-based.
Experiment [28] relates to Staphylococcus aureus. The experiment can be described thus: Induction of membrane disruption in methicillin-resistant Staphylococcus aureus at MIC up to 24 hrs by SEM analysis. The class given is functional, organism-based.
Experiment [29] relates to Staphylococcus aureus. The experiment can be described thus: Antibacterial activity against methicillin-resistant Staphylococcus aureus at MIC by SEM analysis. The class given is functional, organism-based. Particulars: TDE = time-dependent effect.

`O=S(=O)(F)/C=C/c1ccc(Cl)cc1`: the figures for the MIC99 (in the experiment on Staphylococcus aureus [1]; in experiment [2]; in [3]) were 0.818 mg/L (≈ 3.71 µM), 0.83 mg/L (≈ 3.76 µM) and 0.846 mg/L (≈ 3.83 µM), respectively. Moreover, the values for the zone of inhibition at 50 µg/mL (in the experiment with Staphylococcus aureus [4]; in experiment [12]) were 8.2 mm and 7.2 mm, respectively. The results for the zone of inhibition at 0.2 µg/mL (in the experiment on Staphylococcus aureus [5]; in experiment [9]; in [13]) were 6.3 mm, 5.2 mm and 4.1 mm, respectively. Besides, the figures for the zone of inhibition at 0.4 µg/mL (with Staphylococcus aureus [6]; in [10]; in experiment [14]) were 8.2 mm, 7.2 mm and 5.1 mm, respectively. Moreover, the zone of inhibition at 0.8 µg/mL with Staphylococcus aureus [7] came out at 10 mm; in [11], 8.4 mm; in experiment [15], 71 mm. Also, the zone of inhibition at 20 µg/mL in experiment [8] came to 10.3 mm. Further, the OD with Staphylococcus aureus [16] is listed as 1.28; in the experiment with Staphylococcus aureus [18], 0.66; with Staphylococcus aureus [19], 0.66. For the same compound, the outcome in the experiment with Staphylococcus aureus [17], in the experiment with Staphylococcus aureus [20], in the experiment on Staphylococcus aureus [21] and in the experiment with Staphylococcus aureus [22] was Active.
In the case of `CS(=O)(=O)c1cccc(/C=C/S(=O)(=O)F)c1`, the values for the MIC99 (against Staphylococcus aureus [1]; in experiment [2]; in [3]) were 0.81 mg/L (≈ 3.06 µM), 44.2 mg/L (≈ 167 µM) and 39.1 mg/L (≈ 148 µM), respectively. Moreover, the values for the zone of inhibition at 50 µg/mL (in the experiment with Staphylococcus aureus [4]; in [12]) were 10 mm and 6.3 mm, respectively. Also, the zone of inhibition at 0.2 µg/mL in the experiment with Staphylococcus aureus [5] worked out at 6.4 mm. In addition, the zone of inhibition at 0.4 µg/mL with Staphylococcus aureus [6] is 7.1 mm. The zone of inhibition at 0.8 µg/mL in the experiment on Staphylococcus aureus [7] stood at 10.2 mm. Moreover, the zone of inhibition at 20 µg/mL in experiment [8] amounted to 6.2 mm. Also, the OD with Staphylococcus aureus [16] was found to be 1.86; in the experiment on Staphylococcus aureus [18], 0.61; in the experiment on Staphylococcus aureus [19], 0.612. In addition, the outcome in the experiment with Staphylococcus aureus [17], in the experiment with Staphylococcus aureus [20], in the experiment on Staphylococcus aureus [21] and with Staphylococcus aureus [22] was Active.
Turning to `CCn1cc(C(=O)O)c(=O)c2cc(F)c(N3CCNCC3)cc21` [NORFLOXACIN], the MIC99 came to 0.61 mg/L (≈ 1.91 µM) in the experiment with Staphylococcus aureus [1], 0.73 mg/L (≈ 2.29 µM) in [2] and 0.58 mg/L (≈ 1.82 µM) in experiment [3]. Moreover, the zone of inhibition at 30 µg/mL in the experiment on Staphylococcus aureus [23] was found to be 10 mm; in experiment [24], 9.07 mm; in [25] it was 12.7 mm. Also, the result with Staphylococcus aureus [26] was Active. Moreover, in the experiment with Staphylococcus aureus [19], the OD came to 0.695.
Take `O=S(=O)(F)/C=C/c1cc(Cl)nc(Cl)c1`: the results for the MIC99 (in the experiment with Staphylococcus aureus [1]; in experiment [2]; in experiment [3]) were 0.811 mg/L (≈ 3.17 µM), 0.84 mg/L (≈ 3.28 µM) and 0.842 mg/L (≈ 3.29 µM), respectively. Further, the zone of inhibition at 50 µg/mL in the experiment with Staphylococcus aureus [4] stood at 12.1 mm; in experiment [12] it was 7.2 mm. For the same compound, the figures for the zone of inhibition at 0.2 µg/mL (in the experiment with Staphylococcus aureus [5]; in [9]; in experiment [13]) were 7.1 mm, 5.4 mm and 5.2 mm, respectively. The values for the zone of inhibition at 0.4 µg/mL (with Staphylococcus aureus [6]; in [10]; in experiment [14]) were 9.2 mm, 6.3 mm and 6.5 mm, respectively. The zone of inhibition at 0.8 µg/mL is 11.4 mm in the experiment on Staphylococcus aureus [7], 7.2 mm in experiment [11] and 7.4 mm in experiment [15]. Also, in [8], the zone of inhibition at 20 µg/mL is 7.1 mm. The OD in the experiment on Staphylococcus aureus [16] is recorded as 1.85; in the experiment on Staphylococcus aureus [18] it was 0.72; with Staphylococcus aureus [19] it was 0.725. For the same compound, the result in the experiment with Staphylococcus aureus [17], in the experiment with Staphylococcus aureus [27], in the experiment with Staphylococcus aureus [28], in the experiment on Staphylococcus aureus [20], with Staphylococcus aureus [21] and in the experiment on Staphylococcus aureus [22] was Active. In addition, the Activity entry in the experiment on Staphylococcus aureus [29] was “Tde”.
Take `NC[C@H]1O[C@H](O[C@H]2[C@H](O)[C@@H](O[C@H]3O[C@H](CO)[C@@H](O)[C@H](N)[C@H]3O)[C@H](N)C[C@@H]2N)[C@H](O)[C@@H](O)[C@@H]1O` [KANAMYCIN]: the MIC99 against Staphylococcus aureus [1] was 9.12 mg/L (≈ 18.8 µM); in experiment [2], 30.1 mg/L (≈ 62.2 µM); in experiment [3] it was 21.2 mg/L (≈ 43.7 µM). Also, the results for the zone of inhibition at 30 µg/mL (in the experiment with Staphylococcus aureus [23]; in experiment [24]; in [25]) were 12 mm, 8.3 mm and 4.81 mm, respectively. The result in the experiment with Staphylococcus aureus [26] was Active. Besides, the OD in the experiment with Staphylococcus aureus [19] came out at 0.715.
